ChEMBL document CHEMBL5728524, “Apoptosis signal-regulating kinase inhibitors and uses thereof” (2021)

Molecular target: T1, Mitogen-activated protein kinase kinase kinase 5 (Homo sapiens, UniProt Q99683)
T1 sequence (Q99683 whole entry): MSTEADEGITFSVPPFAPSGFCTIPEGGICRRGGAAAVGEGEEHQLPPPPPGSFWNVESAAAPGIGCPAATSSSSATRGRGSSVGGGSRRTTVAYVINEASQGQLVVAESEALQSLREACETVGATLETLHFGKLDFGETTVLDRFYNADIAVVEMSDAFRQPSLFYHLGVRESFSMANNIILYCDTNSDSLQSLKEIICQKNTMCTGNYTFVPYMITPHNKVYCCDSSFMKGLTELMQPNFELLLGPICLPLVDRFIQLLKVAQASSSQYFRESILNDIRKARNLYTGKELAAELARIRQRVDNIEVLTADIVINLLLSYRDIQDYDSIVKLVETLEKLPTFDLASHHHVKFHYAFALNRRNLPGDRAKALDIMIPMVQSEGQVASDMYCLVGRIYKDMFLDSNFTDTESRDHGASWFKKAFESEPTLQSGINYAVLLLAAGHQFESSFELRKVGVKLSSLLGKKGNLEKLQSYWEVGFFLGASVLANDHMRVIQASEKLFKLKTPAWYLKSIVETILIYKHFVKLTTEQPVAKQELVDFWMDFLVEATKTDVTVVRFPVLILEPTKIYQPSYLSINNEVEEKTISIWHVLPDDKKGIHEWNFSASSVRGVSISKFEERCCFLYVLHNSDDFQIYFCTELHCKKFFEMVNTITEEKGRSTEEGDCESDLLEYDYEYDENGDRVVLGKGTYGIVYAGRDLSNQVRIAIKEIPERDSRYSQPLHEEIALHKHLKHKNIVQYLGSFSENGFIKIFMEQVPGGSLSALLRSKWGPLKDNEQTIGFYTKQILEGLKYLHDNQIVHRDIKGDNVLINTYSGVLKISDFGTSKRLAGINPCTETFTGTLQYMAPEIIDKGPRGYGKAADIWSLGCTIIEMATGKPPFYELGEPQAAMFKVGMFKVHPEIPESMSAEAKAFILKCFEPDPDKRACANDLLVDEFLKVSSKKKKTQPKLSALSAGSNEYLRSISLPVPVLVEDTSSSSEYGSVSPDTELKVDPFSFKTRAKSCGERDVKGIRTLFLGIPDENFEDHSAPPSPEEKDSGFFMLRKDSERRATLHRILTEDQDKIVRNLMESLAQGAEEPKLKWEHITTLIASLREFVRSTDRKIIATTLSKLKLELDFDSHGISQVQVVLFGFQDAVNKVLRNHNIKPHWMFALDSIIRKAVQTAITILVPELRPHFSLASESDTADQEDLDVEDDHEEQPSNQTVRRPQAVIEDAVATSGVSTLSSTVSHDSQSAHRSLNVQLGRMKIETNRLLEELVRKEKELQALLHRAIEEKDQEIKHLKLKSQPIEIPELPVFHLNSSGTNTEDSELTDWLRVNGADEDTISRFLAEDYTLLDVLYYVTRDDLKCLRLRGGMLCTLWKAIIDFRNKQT
Assay: Biochemical Assay: The binding of compounds to ASK1 were determined using DiscoverX's proprietary technology. […] The assay is performed by combining three components: DNA-tagged ASK1 kinase; immobilized ligand; and a test compound. The ability of the test compound to compete with the immobilized ligand is measured via quantitative PCR of the DNA tag. […] The liganded beads were blocked with excess biotin and washed with blocking buffer (SeaBlock (Pierce), 1% BSA, 0.05% Tween 20, 1 mM DTT) to remove unbound ligand and to reduce nonspecific binding. […] Kds were determined using an 11-point 3-fold compound dilution series with three DMSO control points. […] The compounds were then diluted directly into the assays such that the final concentration of DMSO was 0.9%. All reactions were performed in polypropylene 384-well plate. […] The kinase concentration in the eluates was measured by qPCR. Most Kds were determined using a compound top concentration=30,000 nM.

| SMILES | Kd |
| --- | --- |
| O=C1Nc2cccc(n2)-c2nncn2CCCCOc2ccc(-c3ccc(CCF)nc3)cc21 | < 100 nM |
| Cc1ncc(-c2ccc3c(c2)C(=O)Nc2cccc(n2)-c2nncn2CCCCO3)cc1F | < 100 nM |
